# According to patent US20120052573A1, “ONE-POT SYNTHESIS OF LINEAR-LIKE POLYETHYLENIMINE FOR INTRACELLULAR IMAGING AND NUCLEIC ACID DELIVERY” (NATIONAL HEALTH RESEARCH INSTITUTES, priority 2010, published 2012):
# Tested on: H460 human lung cancer cells
# Experiment: Flow cytometry cell cycle arrest analysis after cyclin B1 siRNA delivery
# Format: cell-based
# Conditions: [siRNA]=200 nM, [compound b]=100 ng/mL, 24 h, no fetal bovine serum, n=3
# Experimental: Flow cytometry for cell cycle analysis. Human lung cancer cells, H460, at 2×10^5 cells/mL were treated with cyclin B1siRNA alone (200 nM) or compound b/siRNA complex ([compound b]=100 ng/mL, [cyclin B1 siRNA]=200 nM) in RPMI 1640 medium for […] at 37° C., 5% CO2(g). After the treatments, cells were washed twice in PBS buffer solution and fixed in cold. PBS solution containing 75% ethanol. After washing with PBS and centrifugation at 1,500 rpm for 5 min, cells were stained with propidium iodide (PI) and analyzed by FACS Calibur (BD PharMingen, N.J., USA) using WinMDI 2.9 analysis software. The cyclic B1 siRNA sequence is 5′-[…]-3 (SEQ ID NO: 1) for sense and 5′-[…]-3 (SEQ ID NO: 2) (NCBI accession number of cyclin B1: NM031966) for anti-sense.
# PEI has a high cationic density and can associate with nucleic acids such as siRNA to form a cationic polyplex. The efficiency of the PEI according to the invention as a delivery vehicle for siRNA was examined. Compound b (LPEI) was used to associate with a siRNA for silencing Cyclin B1, which is an indispensable protein for cell mitosis. […] The population proportions of cells were analyzed and summarized in histogram profile (FIG. 4E). […]
# H460 lung cancer cells were treated with compound b/siRNA complex for 24 h, and the cell cycle distribution was examined by flow cytometry. […] FL2A: fluorescence pulse area. *p<0.05.
substance,measurement,value
"siRNA alone: cyclin B1 siRNA, sense SEQ ID NO: 1, anti-sense SEQ ID NO: 2 (sense ACAUGAGAGCCAUCCUAAUUGTT; antisense CAAUUAGGAUGGCUCUCAUGUTT; chemistry not given here)","population in G2/M phase of the cell cycle, increase compared with control",5.52%±0.406
